Measurements taken from the NIST ThermoML archive (doi:10.1021/je800463k).

Assay: mn = molality of the nth substance listed, in mol/kg
Conditions: 101 kPa, Liquid; for mass density: Pycnometric method; for electrical conductivity: Frequency=0.001 MHz, Alternating current cell with electrodes; for speed of sound: Frequency=2 MHz

CC(=O)[O-].CC(=O)[O-].[Mg+2] [magnesium acetate] + CO
Conditions	electrical conductivity [S/m]	mass density [kg/m3]	speed of sound [m/s]	viscosity [mPa·s]
299.65 K, m1 = 0.2422	–	803.36	–	–
300.15 K, m1 = 0.2003	–	800.18	–	–
300.2 K, m1 = 0.1402	–	796.94	–	–
300.25 K, m1 = 0.0646	–	791.69	–	–
300.35 K, m1 = 0.053	–	789.91	–	–
300.8 K, m1 = 0.0339	–	788.95	–	–
300.8 K, m1 = 0.3042	–	804.76	–	–
300.85 K, m1 = 0.014	–	787.26	–	–
300.85 K, m1 = 0.2668	–	803.07	–	–
301.1 K, m1 = 0.1112	–	794.25	–	–
301.5 K, m1 = 0.2422	–	801.62	–	–
301.9 K, m1 = 0.2003	–	798.5	–	–
301.9 K, m1 = 0.2192	–	799.27	–	–
301.95 K, m1 = 0.1798	–	798.03	–	–
302.05 K, m1 = 0.0646	–	790	–	–
302.15 K, m1 = 0.053	–	788.23	–	–
302.2 K, m1 = 0.0093	–	785.05	–	–
302.35 K, m1 = 0.0059	–	784.31	–	–
302.55 K, m1 = 0.3042	–	803.02	–	–
302.8 K, m1 = 0.2668	–	801.25	–	–
302.85 K, m1 = 0.1455	–	794.77	–	–
302.9 K, m1 = 0.1402	–	794.38	–	–
303.05 K, m1 = 0.0855	–	789.45	–	–
303.15 K, m1 = 0.0059	0.0362	783.47	1086.1	–
303.15 K, m1 = 0.0093	0.0586	–	1085.4	–
303.15 K, m1 = 0.014	–	–	–	0.5207
303.15 K, m1 = 0.018	0.0665	–	1086.1	0.5223
303.15 K, m1 = 0.0339	0.0868	–	–	0.5306
303.15 K, m1 = 0.053	0.1018	–	1087.5	–
303.15 K, m1 = 0.0646	0.1103	–	–	0.5393
303.15 K, m1 = 0.0855	0.122	–	1090.3	–
303.15 K, m1 = 0.1012	–	–	–	0.5622
303.15 K, m1 = 0.1024	0.1302	–	1093.3	–
303.15 K, m1 = 0.13	–	–	–	0.5718
303.15 K, m1 = 0.1402	0.1487	–	1092.4	0.5779
303.15 K, m1 = 0.1455	0.1524	–	1091.9	–
303.15 K, m1 = 0.17	–	–	–	0.5933
303.15 K, m1 = 0.1837	0.1617	–	1094.3	–
303.15 K, m1 = 0.2003	–	–	–	0.6048
303.15 K, m1 = 0.2192	–	–	1097.7	–
303.15 K, m1 = 0.2422	0.1746	–	1095.1	0.6232
303.15 K, m1 = 0.2453	–	–	–	0.6232
303.15 K, m1 = 0.2889	0.181	–	1098.2	0.642
303.15 K, m1 = 0.3042	–	–	1099.8	–
303.25 K, m1 = 0.2422	–	799.9	–	–
303.45 K, m1 = 0.0339	–	786.42	–	–
303.5 K, m1 = 0.014	–	784.74	–	–
303.65 K, m1 = 0.2192	–	797.61	–	–
303.75 K, m1 = 0.1112	–	791.73	–	–
303.95 K, m1 = 0.053	–	786.54	–	–
304.35 K, m1 = 0.3042	–	801.29	–	–
304.6 K, m1 = 0.1402	–	792.72	–	–
304.6 K, m1 = 0.1798	–	795.47	–	–
304.6 K, m1 = 0.2003	–	795.91	–	–
304.65 K, m1 = 0.0646	–	787.5	–	–
304.75 K, m1 = 0.0855	–	787.76	–	–
304.85 K, m1 = 0.2668	–	799.19	–	–
304.9 K, m1 = 0.0093	–	782.5	–	–
304.95 K, m1 = 0.0059	–	781.79	–	–
305.3 K, m1 = 0.014	–	783.09	–	–
305.5 K, m1 = 0.1455	–	792.24	–	–
305.65 K, m1 = 0.053	–	784.95	–	–
305.8 K, m1 = 0.2422	–	797.4	–	–
305.95 K, m1 = 0.0339	–	783.96	–	–
306.1 K, m1 = 0.3042	–	799.61	–	–
306.15 K, m1 = 0.2192	–	795.21	–	–
306.25 K, m1 = 0.1402	–	791.07	–	–
306.3 K, m1 = 0.1112	–	789.29	–	–
306.35 K, m1 = 0.2003	–	794.29	–	–
306.4 K, m1 = 0.1798	–	793.8	–	–
306.55 K, m1 = 0.0093	–	780.91	–	–
306.65 K, m1 = 0.0059	–	780.15	–	–
306.95 K, m1 = 0.2668	–	797.14	–	–
307.1 K, m1 = 0.0646	–	785.07	–	–
307.3 K, m1 = 0.053	–	783.25	–	–
307.3 K, m1 = 0.1455	–	790.54	–	–
307.35 K, m1 = 0.0855	–	785.26	–	–
307.5 K, m1 = 0.2422	–	795.76	–	–
307.7 K, m1 = 0.0339	–	782.34	–	–
307.7 K, m1 = 0.3042	–	797.95	–	–
307.75 K, m1 = 0.014	–	780.67	–	–
307.8 K, m1 = 0.2192	–	793.51	–	–
307.95 K, m1 = 0.1402	–	789.51	–	–
308.15 K, m1 = 0.0059	0.0369	–	1070.1	–
308.15 K, m1 = 0.0093	0.0592	–	1068.7	–
308.15 K, m1 = 0.014	–	–	–	0.4859
308.15 K, m1 = 0.018	0.0674	–	1071.5	0.4878
308.15 K, m1 = 0.0339	0.0879	–	–	0.496
308.15 K, m1 = 0.053	0.103	–	1075.1	–
308.15 K, m1 = 0.0646	0.112	–	–	0.5027
308.15 K, m1 = 0.0855	0.1232	–	1073.8	–
308.15 K, m1 = 0.1012	–	–	–	0.5234
308.15 K, m1 = 0.1024	0.1326	–	1077.1	–
308.15 K, m1 = 0.13	–	–	–	0.532
308.15 K, m1 = 0.1402	0.151	–	1078.5	0.5368
308.15 K, m1 = 0.1455	0.1557	–	1075.3	–
308.15 K, m1 = 0.17	–	–	–	0.5518
308.15 K, m1 = 0.1837	0.1631	–	1078.1	–
308.15 K, m1 = 0.2003	–	–	–	0.5625
308.15 K, m1 = 0.2192	–	–	1081.5	–
308.15 K, m1 = 0.2422	0.1782	–	1081.2	0.5782
308.15 K, m1 = 0.2453	–	–	–	0.578
308.15 K, m1 = 0.2889	0.1835	–	1082	0.5942
308.15 K, m1 = 0.3042	–	–	1083.6	–
308.2 K, m1 = 0.0093	–	779.23	–	–
308.7 K, m1 = 0.1112	–	786.87	–	–
308.9 K, m1 = 0.053	–	781.63	–	–
308.9 K, m1 = 0.1798	–	791.35	–	–
308.9 K, m1 = 0.2003	–	791.74	–	–
308.9 K, m1 = 0.2668	–	795.13	–	–
308.95 K, m1 = 0.0855	–	783.63	–	–
309.1 K, m1 = 0.0059	–	777.74	–	–
309.1 K, m1 = 0.1455	–	788.87	–	–
309.45 K, m1 = 0.2192	–	791.87	–	–
309.5 K, m1 = 0.3042	–	796.38	–	–
309.75 K, m1 = 0.0646	–	782.66	–	–
309.95 K, m1 = 0.2422	–	793.32	–	–
310.25 K, m1 = 0.014	–	778.28	–	–
310.25 K, m1 = 0.0339	–	779.95	–	–
310.5 K, m1 = 0.1402	–	787	–	–
310.65 K, m1 = 0.0093	–	776.87	–	–
311 K, m1 = 0.2668	–	793.11	–	–
311.2 K, m1 = 0.1112	–	784.4	–	–
311.2 K, m1 = 0.3042	–	794.7	–	–
311.4 K, m1 = 0.053	–	779.24	–	–
311.5 K, m1 = 0.0855	–	781.28	–	–
311.5 K, m1 = 0.1798	–	788.93	–	–
311.55 K, m1 = 0.0059	–	775.36	–	–
311.6 K, m1 = 0.1455	–	786.44	–	–
311.9 K, m1 = 0.2192	–	789.45	–	–
312.1 K, m1 = 0.1402	–	785.37	–	–
312.15 K, m1 = 0.0646	–	780.21	–	–
312.3 K, m1 = 0.0093	–	775.23	–	–
312.35 K, m1 = 0.2003	–	788.52	–	–
312.45 K, m1 = 0.2422	–	790.83	–	–
312.7 K, m1 = 0.0339	–	777.5	–	–
312.75 K, m1 = 0.014	–	775.84	–	–
312.9 K, m1 = 0.053	–	777.6	–	–
313.05 K, m1 = 0.0855	–	779.61	–	–
313.1 K, m1 = 0.2668	–	791.07	–	–
313.15 K, m1 = 0.0059	0.0376	–	1053.9	–
313.15 K, m1 = 0.0093	0.0598	–	1054.5	–
313.15 K, m1 = 0.014	–	–	–	0.4545
313.15 K, m1 = 0.018	0.0685	–	1055.7	0.4559
313.15 K, m1 = 0.0339	0.089	–	–	0.4632
313.15 K, m1 = 0.053	0.1041	–	1059.6	–
313.15 K, m1 = 0.0646	0.1137	–	–	0.4698
313.15 K, m1 = 0.0855	0.1243	–	1059	–
313.15 K, m1 = 0.1012	–	–	–	0.4881
313.15 K, m1 = 0.1024	0.1348	–	1061	–
313.15 K, m1 = 0.13	–	–	–	0.4956
313.15 K, m1 = 0.1402	0.1535	–	1062.7	0.5
313.15 K, m1 = 0.1455	0.1577	–	1059.1	–
313.15 K, m1 = 0.17	–	–	–	0.5145
313.15 K, m1 = 0.1837	0.166	–	1061.4	–
313.15 K, m1 = 0.2003	–	–	–	0.5239
313.15 K, m1 = 0.2192	–	–	1064.3	–
313.15 K, m1 = 0.2422	0.1817	–	1064.9	0.5375
313.15 K, m1 = 0.2453	–	–	–	0.5373
313.15 K, m1 = 0.2889	0.1868	–	1066.1	0.5513
313.15 K, m1 = 0.3042	–	–	1067.2	–
313.55 K, m1 = 0.3042	–	792.2	–	–
313.65 K, m1 = 0.1112	–	782	–	–
313.95 K, m1 = 0.1455	–	784.03	–	–
313.95 K, m1 = 0.1798	–	786.45	–	–
314.05 K, m1 = 0.0059	–	772.92	–	–
314.55 K, m1 = 0.1402	–	782.97	–	–
314.6 K, m1 = 0.0646	–	777.82	–	–
314.7 K, m1 = 0.0093	–	772.8	–	–
314.8 K, m1 = 0.2003	–	786.04	–	–
314.8 K, m1 = 0.2422	–	788.41	–	–
314.8 K, m1 = 0.2668	–	789.38	–	–
315.1 K, m1 = 0.0339	–	775.12	–	–
315.2 K, m1 = 0.014	–	773.47	–	–
315.4 K, m1 = 0.053	–	775.16	–	–
315.45 K, m1 = 0.0855	–	777.19	–	–
316.05 K, m1 = 0.3042	–	789.78	–	–
316.35 K, m1 = 0.0059	–	770.56	–	–
316.35 K, m1 = 0.1798	–	784.05	–	–
316.4 K, m1 = 0.1455	–	781.57	–	–
316.95 K, m1 = 0.0855	–	775.61	–	–
316.95 K, m1 = 0.2668	–	787.26	–	–
317 K, m1 = 0.0093	–	770.44	–	–
317.25 K, m1 = 0.2003	–	783.64	–	–
318.7 K, m1 = 0.1455	–	779.18	–	–
